From ChEMBL document CHEMBL4304811, “Development of a Water-Soluble Indolylmaleimide Derivative IM-93 Showing Dual Inhibition of Ferroptosis and NETosis” (ACS Med Chem Lett, 2019)
Activity calls are given as the source filed them. No cut-off for these calls is given here.

Columns and labels:
[1] = tested on: Tyrosine-protein kinase ABL1 (Homo sapiens), P00519 [Y253F]; assay: Binding affinity to human phosphorylated ABL1 Y253F mutant (S229 to K512 residues) expressed in mammalian expression system assessed as residual binding level at 10 uM by Kinomescan method relative to control
[2] = molecular target: Activin receptor type-1 (Homo sapiens) (UniProt Q04771); assay: Binding affinity to wild-type human ACVR1 (C188 to C509 residues) expressed in bacterial expression system assessed as residual binding level at 10 uM by Kinomescan method relative to control
[3] = molecular target: Mitogen-activated protein kinase kinase kinase 6 (Homo sapiens) (UniProt O95382); assay: Binding affinity to wild-type human partial length ASK2 (M278 to R972 residues) expressed in mammalian expression system assessed as residual binding level at 10 uM by Kinomescan method relative to control
[4] = molecular target: Cyclin-dependent kinase 7 (Homo sapiens) (UniProt P50613); assay: Binding affinity to wild-type human full length CDK7 (M1 to L344 residues) expressed in mammalian expression system assessed as residual binding level at 10 uM by Kinomescan method relative to control
[5] = molecular target: Cyclin-dependent kinase-like 2 (Homo sapiens) (UniProt Q92772); assay: Binding affinity to wild-type human partial length CDKL2 (M1 to D327 residues) expressed in bacterial expression system assessed as residual binding level at 10 uM by Kinomescan method relative to control
[6] = molecular target: Serine/threonine-protein kinase Chk1 (Homo sapiens) (UniProt O14757); assay: Binding affinity to wild-type human partial length CHEK1 (M1 to G289 residues) expressed in bacterial expression system assessed as residual binding level at 10 uM by Kinomescan method relative to control
Sequence of Serine/threonine-protein kinase Chk1 (Homo sapiens) (O14757 whole entry, the tested form may be a part): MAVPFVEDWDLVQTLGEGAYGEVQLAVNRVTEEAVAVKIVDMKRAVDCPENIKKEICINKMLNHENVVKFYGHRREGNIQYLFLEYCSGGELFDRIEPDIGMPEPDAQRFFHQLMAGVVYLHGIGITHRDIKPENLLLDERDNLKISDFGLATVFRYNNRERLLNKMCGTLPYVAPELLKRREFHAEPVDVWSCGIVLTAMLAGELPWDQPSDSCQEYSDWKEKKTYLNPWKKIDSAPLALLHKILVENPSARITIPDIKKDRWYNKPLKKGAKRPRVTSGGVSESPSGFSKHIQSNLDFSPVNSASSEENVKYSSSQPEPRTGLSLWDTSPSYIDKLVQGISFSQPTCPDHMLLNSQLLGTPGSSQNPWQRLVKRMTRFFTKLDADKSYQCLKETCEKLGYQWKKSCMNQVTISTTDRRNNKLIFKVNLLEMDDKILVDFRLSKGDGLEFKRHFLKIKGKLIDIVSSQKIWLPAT

[7] = molecular target: Megakaryocyte-associated tyrosine-protein kinase (Homo sapiens) (UniProt P42679); assay: Binding affinity to wild-type human full length CTK (M43 to P508 residues) expressed in mammalian expression system assessed as residual binding level at 10 uM by Kinomescan method relative to control
[8] = molecular target: Discoidin domain-containing receptor 2 (Homo sapiens) (UniProt Q16832); assay: Binding affinity to wild-type human partial length DDR2 (V555 to E855 residues) expressed in mammalian expression system assessed as residual binding level at 10 uM by Kinomescan method relative to control
Sequence of Discoidin domain-containing receptor 2 (Homo sapiens) (Q16832 whole entry, the tested form may be a part): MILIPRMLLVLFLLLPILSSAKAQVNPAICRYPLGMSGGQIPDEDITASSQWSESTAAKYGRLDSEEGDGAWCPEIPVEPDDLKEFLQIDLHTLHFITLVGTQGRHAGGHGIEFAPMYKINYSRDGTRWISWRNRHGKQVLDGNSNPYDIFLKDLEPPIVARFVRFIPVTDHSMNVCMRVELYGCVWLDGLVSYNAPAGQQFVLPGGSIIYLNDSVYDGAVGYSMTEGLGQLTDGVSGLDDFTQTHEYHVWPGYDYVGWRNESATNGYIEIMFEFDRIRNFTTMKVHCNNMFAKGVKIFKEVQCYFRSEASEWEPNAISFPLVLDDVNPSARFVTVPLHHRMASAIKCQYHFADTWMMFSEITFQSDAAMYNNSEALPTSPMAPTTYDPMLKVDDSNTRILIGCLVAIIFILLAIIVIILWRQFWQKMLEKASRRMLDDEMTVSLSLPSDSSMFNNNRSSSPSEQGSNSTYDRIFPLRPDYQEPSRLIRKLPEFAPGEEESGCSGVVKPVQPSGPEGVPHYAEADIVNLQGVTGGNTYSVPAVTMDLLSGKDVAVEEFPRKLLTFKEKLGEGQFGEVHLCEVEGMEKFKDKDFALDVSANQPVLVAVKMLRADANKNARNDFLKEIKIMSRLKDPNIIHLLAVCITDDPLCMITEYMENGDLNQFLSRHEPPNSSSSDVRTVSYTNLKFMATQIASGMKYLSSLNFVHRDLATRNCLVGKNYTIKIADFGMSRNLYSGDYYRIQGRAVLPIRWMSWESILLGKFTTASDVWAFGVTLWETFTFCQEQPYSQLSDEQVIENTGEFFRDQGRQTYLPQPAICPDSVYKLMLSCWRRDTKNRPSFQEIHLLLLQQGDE

[9] = molecular target: Serine/threonine-protein kinase 17B (Homo sapiens) (UniProt O94768); assay: Binding affinity to wild-type human full length DRAK2 (M1 to C372 residues) expressed in bacterial expression system assessed as residual binding level at 10 uM by Kinomescan method relative to control
Sequence of Serine/threonine-protein kinase 17B (Homo sapiens) (O94768 whole entry, the tested form may be a part): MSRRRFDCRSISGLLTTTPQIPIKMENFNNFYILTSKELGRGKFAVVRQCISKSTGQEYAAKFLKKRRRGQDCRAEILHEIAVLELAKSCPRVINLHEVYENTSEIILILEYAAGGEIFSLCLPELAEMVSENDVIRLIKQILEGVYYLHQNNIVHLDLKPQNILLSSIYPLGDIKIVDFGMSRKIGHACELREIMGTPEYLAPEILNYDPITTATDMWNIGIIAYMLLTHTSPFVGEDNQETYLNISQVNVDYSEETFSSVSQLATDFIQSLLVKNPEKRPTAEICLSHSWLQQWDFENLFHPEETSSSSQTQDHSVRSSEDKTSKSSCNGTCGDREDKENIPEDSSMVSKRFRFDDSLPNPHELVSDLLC

[10] = molecular target: Ephrin type-A receptor 1 (Homo sapiens) (UniProt P21709); assay: Binding affinity to wild-type human partial length EPHA1 (V588 to I913 residues) expressed in bacterial expression system assessed as residual binding level at 10 uM by Kinomescan method relative to control
Sequence of Ephrin type-A receptor 1 (Homo sapiens) (P21709 whole entry, the tested form may be a part): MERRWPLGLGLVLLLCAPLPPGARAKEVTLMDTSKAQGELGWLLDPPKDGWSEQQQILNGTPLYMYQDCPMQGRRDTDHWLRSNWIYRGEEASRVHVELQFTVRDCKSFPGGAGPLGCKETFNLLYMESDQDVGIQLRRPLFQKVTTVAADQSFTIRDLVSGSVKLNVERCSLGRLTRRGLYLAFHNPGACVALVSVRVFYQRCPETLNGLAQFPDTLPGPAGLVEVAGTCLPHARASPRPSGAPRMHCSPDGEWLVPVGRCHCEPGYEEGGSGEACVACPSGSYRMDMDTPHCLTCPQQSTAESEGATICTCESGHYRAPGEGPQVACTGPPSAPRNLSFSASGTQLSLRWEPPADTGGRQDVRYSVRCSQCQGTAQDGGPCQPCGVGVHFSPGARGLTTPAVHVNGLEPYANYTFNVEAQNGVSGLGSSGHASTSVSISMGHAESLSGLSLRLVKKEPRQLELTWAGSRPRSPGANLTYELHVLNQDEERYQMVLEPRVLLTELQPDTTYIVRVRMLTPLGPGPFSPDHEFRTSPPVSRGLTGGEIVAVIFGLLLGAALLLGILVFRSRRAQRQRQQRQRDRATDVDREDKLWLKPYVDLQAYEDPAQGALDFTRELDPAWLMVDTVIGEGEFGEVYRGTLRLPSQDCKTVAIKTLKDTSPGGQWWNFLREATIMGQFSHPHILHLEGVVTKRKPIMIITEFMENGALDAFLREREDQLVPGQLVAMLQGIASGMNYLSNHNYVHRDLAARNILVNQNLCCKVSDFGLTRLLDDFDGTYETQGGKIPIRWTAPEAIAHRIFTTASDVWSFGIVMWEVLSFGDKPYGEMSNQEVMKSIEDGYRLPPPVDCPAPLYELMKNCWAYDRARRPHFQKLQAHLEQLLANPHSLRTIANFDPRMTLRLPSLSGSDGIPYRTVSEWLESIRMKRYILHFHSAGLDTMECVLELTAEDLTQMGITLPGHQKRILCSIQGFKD

[11] = molecular target: Mitogen-activated protein kinase 6 (Homo sapiens) (UniProt Q16659); assay: Binding affinity to wild-type human partial length ERK3 (M1 to P413 residues) expressed in bacterial expression system assessed as residual binding level at 10 uM by Kinomescan method relative to control
[12] = molecular target: Tyrosine-protein kinase HCK (Homo sapiens) (UniProt P08631); assay: Binding affinity to wild-type human full length HCK (M22 to P526 residues) expressed in bacterial expression system assessed as residual binding level at 10 uM by Kinomescan method relative to control
[13] = molecular target: Tyrosine-protein kinase JAK1 (Homo sapiens) (UniProt P23458); assay: Binding affinity to wild-type human partial length JAK1 JH2 pseudokinase domain (R537 to D855 residues) expressed in mammalian expression system assessed as residual binding level at 10 uM by Kinomescan method relative to control
[14] = molecular target: Serine/threonine-protein kinase LATS2 (Homo sapiens) (UniProt Q9NRM7); assay: Binding affinity to wild-type human partial length LATS2 (Q641 to V1088 residues) expressed in mammalian expression system assessed as residual binding level at 10 uM by Kinomescan method relative to control
[15] = molecular target: Mitogen-activated protein kinase kinase kinase kinase 2 (Homo sapiens) (UniProt Q12851); assay: Binding affinity to wild-type human partial length MAP4K2 (M1 to G318 residues) expressed in mammalian expression system assessed as residual binding level at 10 uM by Kinomescan method relative to control
[16] = molecular target: Serine/threonine-protein kinase PAK 5 (Homo sapiens) (UniProt Q9P286); assay: Binding affinity to wild-type human partial length PAK7 (Y400 to H719 residues) expressed in bacterial expression system assessed as residual binding level at 10 uM by Kinomescan method relative to control
Sequence of Serine/threonine-protein kinase PAK 5 (Homo sapiens) (Q9P286 whole entry, looked up, the tested form may be a part): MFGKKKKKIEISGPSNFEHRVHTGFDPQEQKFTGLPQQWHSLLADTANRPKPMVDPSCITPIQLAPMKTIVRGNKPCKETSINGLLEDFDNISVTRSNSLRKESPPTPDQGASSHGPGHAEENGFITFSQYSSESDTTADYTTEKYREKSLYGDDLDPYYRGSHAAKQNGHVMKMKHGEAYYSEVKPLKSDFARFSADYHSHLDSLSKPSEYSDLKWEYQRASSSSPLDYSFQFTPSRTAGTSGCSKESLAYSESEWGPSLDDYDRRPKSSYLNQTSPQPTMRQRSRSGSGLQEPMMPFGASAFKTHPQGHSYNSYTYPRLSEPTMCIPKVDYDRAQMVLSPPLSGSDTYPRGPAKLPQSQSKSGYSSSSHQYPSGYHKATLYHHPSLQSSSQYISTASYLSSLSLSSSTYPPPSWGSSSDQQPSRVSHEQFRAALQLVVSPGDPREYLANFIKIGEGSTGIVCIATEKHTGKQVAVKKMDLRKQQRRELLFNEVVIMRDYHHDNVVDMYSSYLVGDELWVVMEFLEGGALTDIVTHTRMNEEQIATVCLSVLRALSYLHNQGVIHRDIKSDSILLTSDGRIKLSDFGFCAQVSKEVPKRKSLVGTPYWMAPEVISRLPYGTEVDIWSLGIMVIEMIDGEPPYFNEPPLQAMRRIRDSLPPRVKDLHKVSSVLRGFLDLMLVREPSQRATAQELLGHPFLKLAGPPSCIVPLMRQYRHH

[17] = molecular target: cAMP-dependent protein kinase catalytic subunit alpha (Homo sapiens) (UniProt P17612); assay: Binding affinity to wild-type human partial length PKAC-alpha (G10 to F351 residues) expressed in bacterial expression system assessed as residual binding level at 10 uM by Kinomescan method relative to control
[18] = molecular target: cGMP-dependent protein kinase 2 (Homo sapiens) (UniProt Q13237); assay: Binding affinity to wild-type human partial length PRKG2 (S422 to F762 residues) expressed in mammalian expression system assessed as residual binding level at 10 uM by Kinomescan method relative to control
[19] = molecular target: Tyrosine-protein kinase receptor Tie-1 (Homo sapiens) (UniProt P35590); assay: Binding affinity to wild-type human partial length TIE1 (T819 to A1138 residues) expressed in bacterial expression system assessed as residual binding level at 10 uM by Kinomescan method relative to control
[20] = molecular target: Testis-specific serine/threonine-protein kinase 1 (Homo sapiens) (UniProt Q9BXA7); assay: Binding affinity to wild-type human full length TSSK1B (M1 to Q367 residues) expressed in bacterial expression system assessed as residual binding level at 10 uM by Kinomescan method relative to control
Sequence of Testis-specific serine/threonine-protein kinase 1 (Homo sapiens) (Q9BXA7 whole entry, the tested form may be a part): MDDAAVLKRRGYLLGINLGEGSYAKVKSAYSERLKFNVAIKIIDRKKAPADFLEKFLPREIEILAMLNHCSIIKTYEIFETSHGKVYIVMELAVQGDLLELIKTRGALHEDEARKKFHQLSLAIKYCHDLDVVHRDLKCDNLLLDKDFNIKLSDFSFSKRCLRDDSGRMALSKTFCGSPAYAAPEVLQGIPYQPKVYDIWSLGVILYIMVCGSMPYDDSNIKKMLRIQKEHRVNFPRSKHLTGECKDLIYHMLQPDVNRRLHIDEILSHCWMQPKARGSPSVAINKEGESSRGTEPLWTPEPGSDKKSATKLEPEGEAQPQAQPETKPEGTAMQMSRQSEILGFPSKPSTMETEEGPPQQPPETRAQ

[21] = molecular target: Tyrosine-protein kinase TXK (Homo sapiens) (UniProt P42681); assay: Binding affinity to wild-type human partial length TXK (L238 to W527 residues) expressed in bacterial expression system assessed as residual binding level at 10 uM by Kinomescan method relative to control
Sequence of Tyrosine-protein kinase TXK (Homo sapiens) (P42681 whole entry, the tested form may be a part): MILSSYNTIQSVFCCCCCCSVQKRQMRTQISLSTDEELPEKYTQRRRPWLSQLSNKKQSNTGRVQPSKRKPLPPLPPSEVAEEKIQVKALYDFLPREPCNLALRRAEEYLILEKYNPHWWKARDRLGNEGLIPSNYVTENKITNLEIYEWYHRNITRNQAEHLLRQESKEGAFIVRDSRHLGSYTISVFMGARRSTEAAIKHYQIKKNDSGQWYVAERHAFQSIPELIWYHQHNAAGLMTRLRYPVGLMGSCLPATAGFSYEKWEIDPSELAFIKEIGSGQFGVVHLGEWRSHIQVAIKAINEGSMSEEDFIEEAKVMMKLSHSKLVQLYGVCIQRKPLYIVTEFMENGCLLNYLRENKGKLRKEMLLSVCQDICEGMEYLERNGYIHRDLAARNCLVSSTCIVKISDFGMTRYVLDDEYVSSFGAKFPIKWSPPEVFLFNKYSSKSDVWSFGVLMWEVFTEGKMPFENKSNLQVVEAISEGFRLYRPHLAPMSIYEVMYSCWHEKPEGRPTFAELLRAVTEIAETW

[22] = molecular target: Tyrosine-protein kinase receptor TYRO3 (Homo sapiens) (UniProt Q06418); assay: Binding affinity to wild-type human partial length TYRO3 (S497 to T814 residues) expressed in bacterial expression system assessed as residual binding level at 10 uM by Kinomescan method relative to control
Jurkat = assay: Cytoprotection against fas ligand/cycloheximide/Z-VAD-fmk-induced necroptosis in human Jurkat cells at 4 to 25 uM measured after 20 hrs by WST-8 assay; format: functional, cell-based
THP-1 = assay: Inhibition of Pseudomonas aeruginosa-induced pyroptosis in human THP1 cells at 10 uM preincubated for 1 hr followed by bacterial infection and measured after 2 hrs by INT dye based LDH assay; format: functional, cell-based
[23] = molecular target: Protein-arginine deiminase type-4 (Homo sapiens) (UniProt Q9UM07); assay: Inhibition of recombinant human PAD4 at 200 uM using N-alpha-benzoyl-L-arginine ethyl ester as substrate by fluorescence based analysis
Sequence of Protein-arginine deiminase type-4 (Homo sapiens) (Q9UM07 whole entry): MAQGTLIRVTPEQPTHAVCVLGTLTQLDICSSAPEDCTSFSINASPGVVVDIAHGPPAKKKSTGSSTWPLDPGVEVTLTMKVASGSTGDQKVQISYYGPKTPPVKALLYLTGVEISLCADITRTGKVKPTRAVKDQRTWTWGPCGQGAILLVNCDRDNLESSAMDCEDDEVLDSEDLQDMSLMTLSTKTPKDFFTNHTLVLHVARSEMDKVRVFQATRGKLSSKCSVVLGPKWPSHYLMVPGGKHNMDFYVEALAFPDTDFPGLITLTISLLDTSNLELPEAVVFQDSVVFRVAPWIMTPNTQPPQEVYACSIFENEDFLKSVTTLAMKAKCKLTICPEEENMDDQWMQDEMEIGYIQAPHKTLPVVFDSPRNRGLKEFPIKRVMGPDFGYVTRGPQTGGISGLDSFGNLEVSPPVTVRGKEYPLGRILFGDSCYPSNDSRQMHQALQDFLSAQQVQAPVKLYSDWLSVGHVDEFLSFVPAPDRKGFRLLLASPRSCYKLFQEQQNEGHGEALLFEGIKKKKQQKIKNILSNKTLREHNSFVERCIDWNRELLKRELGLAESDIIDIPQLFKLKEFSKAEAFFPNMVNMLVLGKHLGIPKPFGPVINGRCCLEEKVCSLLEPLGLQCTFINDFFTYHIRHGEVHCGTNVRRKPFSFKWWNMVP

Compound: CC(C)N1C(=O)C(NCCCN(C)C)=C(c2cn(C)c3ccccc23)C1=O.Cl
- Activity [1]: 98%
- Activity [2]: 100%
- Activity [3]: 98%
- Activity [4]: 80%
- Activity [5]: 91%
- Activity [6]: 100%
- Activity [7]: 83%
- Activity [8]: 100%
- Activity [9]: 91%
- Activity [10]: 85%
- Activity [11]: 100%
- Activity [12]: 100%
- Activity [13]: 88%
- Activity [14]: 88%
- Activity [15]: 85%
- Activity [16]: 100%
- Activity [17]: 84%
- Activity [18]: 88%
- Activity [19]: 92%
- Activity [20]: 100%
- Activity [21]: 88%
- Activity [22]: 100%
- Activity (Jurkat): inactive
- inhibition (THP-1): inactive
- inhibition [23]: inactive
